Experiments:
rape [1] = experiment: Postemergent control of plant species; type: in vivo, Brassica napus; conditions: Brassica napus, post-emergence, 336 h, read-out: percent postemergent control
Procedure, shortened: (§1)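 Spray emulsion: acetone stock at twice final concentration plus equal volume water with 0.1% wetting agent, applied to separated greenhouse beds at 2-4 leaf stage. Assessed at ~two weeks; score reflects growth reduction compared with untreated plants.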

soybean = experiment: Postemergent control of plant species; type: in vivo, Glycine max.; conditions: Glycine max, post-emergence, 336 h, read-out: percent postemergent control
Procedure, shortened: as §1

sugar beet [2] = experiment: Postemergent control of plant species; type: in vivo, Beta saccharifera; conditions: Beta vulgaris, post-emergence, 336 h, read-out: percent postemergent control
Procedure, shortened: as §1

cocklebur = experiment: Postemergent control of plant species; type: in vivo, Xanthium spp.; conditions: Xanthium strumarium, post-emergence, 336 h, read-out: percent postemergent control
Procedure, shortened: as §1

jimsonweed = experiment: Postemergent control of plant species; type: in vivo, Datura stramonium; conditions: Datura stramonium, post-emergence, 336 h, read-out: percent postemergent control
Procedure, shortened: as §1

pigweed [3] = experiment: Postemergent control of plant species; type: in vivo, Amaranthus spp.; conditions: Amaranthus retroflexus, post-emergence, 336 h, read-out: percent postemergent control
Procedure, shortened: as §1

velvetleaf [4] = experiment: Postemergent control of plant species; type: in vivo, Abutilon theophrasti; conditions: Abutilon theophrasti, post-emergence, 336 h, read-out: percent postemergent control
Procedure, shortened: as §1

rice [5] = experiment: Postemergent control of plant species; type: in vivo, Oryza sativa; conditions: Oryza sativa, post-emergence, 336 h, read-out: percent postemergent control
Procedure, shortened: as §1

sorghum = experiment: Postemergent control of plant species; type: in vivo, Sorghum vulgare; conditions: Sorghum, post-emergence, 336 h, read-out: percent postemergent control
Procedure, shortened: as §1

barnyardgrass [6] = experiment: Postemergent control of plant species; type: in vivo, Echinochloa crusgalli; conditions: Echinochloa crus-galli, post-emergence, 336 h, read-out: percent postemergent control
Procedure, shortened: as §1

crabgrass [7] = experiment: Postemergent control of plant species; type: in vivo, Digitaria spp.; conditions: Digitaria sanguinalis, post-emergence, 336 h, read-out: percent postemergent control
Procedure, shortened: as §1

yellow foxtail = experiment: Postemergent control of plant species; type: in vivo, Setaria lutescens; conditions: Setaria, post-emergence, 336 h, read-out: percent postemergent control
Procedure, shortened: as §1

johnson grass [8] = experiment: Postemergent control of plant species; type: in vivo, Sorghum halepense; conditions: Sorghum halepense, post-emergence, 336 h, read-out: percent postemergent control
Procedure, shortened: as §1

wild oats = experiment: Postemergent control of plant species; type: in vivo, Avena fatua; conditions: Avena fatua, post-emergence, 336 h, read-out: percent postemergent control
Procedure, shortened: as §1

cotton = experiment: Preemergent control of plant species; type: in vivo, Gossypium spp.; conditions: Gossypium hirsutum, pre-emergence, 336 h; 0.25 lb/acre; read-out: percent preemergent control
Procedure, shortened: (§2)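 Test compositions were applied evenly to the surface of freshly seeded soil beds and kept under greenhouse conditions for two weeks. Percent control reflects growth reduction compared with water-treated beds of the same species.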

rape [9] = experiment: Preemergent control of plant species; type: in vivo, Brassica napus; conditions: Brassica napus, pre-emergence, 336 h; 0.25 lb/acre; read-out: percent preemergent control
Procedure, shortened: as §2

sugar beet [10] = experiment: Preemergent control of plant species; type: in vivo, Beta saccharifera; conditions: Beta vulgaris, pre-emergence, 336 h; 0.25 lb/acre; read-out: percent preemergent control
Procedure, shortened: as §2

annual morning glory = experiment: Preemergent control of plant species; type: in vivo, Ipomoea spp.; conditions: Ipomoea, pre-emergence, 336 h; 0.25 lb/acre; read-out: percent preemergent control
Procedure, shortened: as §2

pigweed [11] = experiment: Preemergent control of plant species; type: in vivo, Amaranthus spp.; conditions: Amaranthus retroflexus, pre-emergence, 336 h; 0.25 lb/acre; read-out: percent preemergent control
Procedure, shortened: as §2

velvetleaf [12] = experiment: Preemergent control of plant species; type: in vivo, Abutilon theophrasti; conditions: Abutilon theophrasti, pre-emergence, 336 h; 0.25 lb/acre; read-out: percent preemergent control
Procedure, shortened: as §2

rice [13] = experiment: Preemergent control of plant species; type: in vivo, Oryza sativa; conditions: Oryza sativa, pre-emergence, 336 h; 0.25 lb/acre; read-out: percent preemergent control
Procedure, shortened: as §2

wheat = experiment: Preemergent control of plant species; type: in vivo, Triticum aestivum; conditions: Triticum aestivum, pre-emergence, 336 h; 0.25 lb/acre; read-out: percent preemergent control
Procedure, shortened: as §2

barnyardgrass [14] = experiment: Preemergent control of plant species; type: in vivo, Echinochloa crusgalli; conditions: Echinochloa crus-galli, pre-emergence, 336 h; 0.25 lb/acre; read-out: percent preemergent control
Procedure, shortened: as §2

crabgrass [15] = experiment: Preemergent control of plant species; type: in vivo, Digitaria spp.; conditions: Digitaria sanguinalis, pre-emergence, 336 h; 0.25 lb/acre; read-out: percent preemergent control
Procedure, shortened: as §2

johnson grass [16] = experiment: Preemergent control of plant species; type: in vivo, Sorghum halepense; conditions: Sorghum halepense, pre-emergence, 336 h; 0.25 lb/acre; read-out: percent preemergent control
Procedure, shortened: as §2

`Cc1cc(C)n2nc(S(=O)(=O)Nc3ccccc3I)nc2n1` [Compound 6] was tested, and the plant injury at 500 ppm (rape [1]) was 80%, the plant injury at 500 ppm (soybean) was 70% and the plant injury at 500 ppm (sugar beet [2]) was 90%. For the same compound, the pest or weed control at 500 ppm (cocklebur) was 90%, the pest or weed control at 500 ppm (jimsonweed) was 30% and the pest or weed control at 500 ppm (pigweed [3]) was 30%. The pest or weed control at 500 ppm (velvetleaf [4]) was 90%, the plant injury at 500 ppm (rice [5]) was 20% and the plant injury at 500 ppm (sorghum) was 80%. The pest or weed control at 500 ppm (barnyardgrass [6]) was 35%, the pest or weed control at 500 ppm (crabgrass [7]) was 20% and the pest or weed control at 500 ppm (yellow foxtail) was 0%. It also gave a pest or weed control at 500 ppm (johnson grass [8]) of 80%, a pest or weed control at 500 ppm (wild oats) of 0% and a plant injury at 280.212 g/ha (cotton) of 70%. The plant injury at 280.212 g/ha (rape [9]) was 100%, the plant injury at 280.212 g/ha (sugar beet [10]) was 95% and the pest or weed control at 280.212 g/ha (annual morning glory) was 0%. The pest or weed control at 280.212 g/ha (pigweed [11]) was 100%, the pest or weed control at 280.212 g/ha (velvetleaf [12]) was 60% and the plant injury at 280.212 g/ha (rice [13]) was 80%. For the same compound, the plant injury at 280.212 g/ha (wheat) was 0%, the pest or weed control at 280.212 g/ha (barnyardgrass [14]) was 80% and the pest or weed control at 280.212 g/ha (crabgrass [15]) was 0%. For the same compound, the pest or weed control at 280.212 g/ha (johnson grass [16]) was 0%.

For `CCc1cccc(CC)c1NS(=O)(=O)c1nc2nc(C)cc(C)n2n1` [Compound 33], the plant injury at 500 ppm (rape [1]) was 60%, the plant injury at 500 ppm (soybean) was 40% and the plant injury at 500 ppm (sugar beet [2]) was 40%. It also gave a pest or weed control at 500 ppm (cocklebur) of 60%, a pest or weed control at 500 ppm (jimsonweed) of 40% and a pest or weed control at 500 ppm (pigweed [3]) of 10%. It also gave a pest or weed control at 500 ppm (velvetleaf [4]) of 80%, a plant injury at 500 ppm (rice [5]) of 0% and a plant injury at 500 ppm (sorghum) of 80%. It also gave a pest or weed control at 500 ppm (barnyardgrass [6]) of 0%, a pest or weed control at 500 ppm (crabgrass [7]) of 0% and a pest or weed control at 500 ppm (yellow foxtail) of 0%. It also gave a pest or weed control at 500 ppm (johnson grass [8]) of 60%, a pest or weed control at 500 ppm (wild oats) of 0% and a plant injury at 280.212 g/ha (cotton) of 20%. It also gave a plant injury at 280.212 g/ha (rape [9]) of 80%, a plant injury at 280.212 g/ha (sugar beet [10]) of 50% and a pest or weed control at 280.212 g/ha (annual morning glory) of 0%. The pest or weed control at 280.212 g/ha (pigweed [11]) was 10%, the pest or weed control at 280.212 g/ha (velvetleaf [12]) was 0% and the plant injury at 280.212 g/ha (rice [13]) was 0%. The plant injury at 280.212 g/ha (wheat) was 40%, the pest or weed control at 280.212 g/ha (barnyardgrass [14]) was 50% and the pest or weed control at 280.212 g/ha (crabgrass [15]) was 10%. The pest or weed control at 280.212 g/ha (johnson grass [16]) was 0%.
